Results taken from patent publication US20200172974A1, “BIOMARKER FOR ANTI-TNF THERAPY IN RETINAL DISEASES” (HADASIT MEDICAL RESEARCH SERVICES & DEVELOPMENT LTD., priority 2017, published 2020).

How the values were obtained:
[1] = system: choroidal neovascularization (CNV); experiment: Laser-induced model of CNV (LI-CNV); assay type: in vivo, Long-Evans rats; conditions: flat mounts 10 days after laser injury
Experimental: Long-Evans rats (8-12 weeks old) were used to generate LI-CNV. Animals were treated in accordance to the guidelines of ARVO. Experiments were conducted with the approval of the institutional animal care ethics committee. Before each procedure, rats were anesthetized by intraperitoneal injections of a mixture of 85% ketamine (Bedford Laboratories, Bedford, Ohio) and 15% xylazine (VMD, Arendonk, Belgium). Topical anesthesia (Oxybuprocaine HCL 0.4%; Fisher Pharmaceuticals, Tel-Aviv, Israel) was applied to each eye 10 minutes before intravitreal injections or laser photocoagulation.
Laser burns (5-7 burns per eye) were generated. Intravitreal injections of all compounds were performed using a PLI-100 Pico-Injector (Medical System Corp., Greenvale, N.Y.) two days following the laser to allow for CNV development, and every 2 days thereafter for a total of 10 days. iMfs were injected only once, two days after laser injury was performed.
Experimental groups included: 4 μl of PBS, 1 μl of 100 μg/μl infliximab, 1 μl of 100 μg/μl aflibercept, 1 μl of 100 μg/μl infliximab with 1×10^5 M(IFNγ and LPS) suspended in 4 μl of PBS; 1 μl of 100 μg/μl aflibercept with 1×10^5 M(IFNγ and LPS) suspended in 4 μl of PBS; and 1×10^5 M(IFNγ and LPS) suspended in 4 μl of PBS, for a total of 5 experimental groups and 1 control group. Each experimental group included 8 injected eyes of 4 rats. The compound dosage was previously described (Xu et al., (2008)). Antibiotic ointment (5% Chloramphenicol) was applied after every injection. Choroid-RPE and retinal flat mounts were prepared 10 days following the laser injury.
RPE-choroidal flat-mounts were fixated for one hour in 4% PFA and suspended overnight in isolectin solution (GS-Ib4 Alexa 594 staining solution, Molecular Probes, Eugene, Oreg.) containing 200 mM NaN3 and 1 mM CaCl2). Flat mounts were then washed 6 times for 20 minutes in PBS and embedded on a slide with a mounting medium. The CNV area around each laser injury was measured using the ImageJ software.

[2] = system: choroidal sprouting (choroid-sclera complex with RPE in Matrigel); experiment: Choroid-sprouting assay (CSA), ex-vivo angiogenesis assay; assay type: cell-based, C57/BL6J mice; conditions: fixed after 8 days
Experimental: Cytokines were added to the media based on the maximal level of each cytokine via ELISA of M(IFNγ and LPS)-derived media. Five (5) cytokines were tested (n=8; replicates for each cytokine): 0.25 ng/μl VEGF, 0.5 ng/μl IL-8, 2.5 ng/μl IL-6, 0.05 ng/μl IL-1β, and 0.8 5 ng/μl TNFα (PeproTech, Rocky Hill, N.J., USA). Anti-TNF (infliximab, 100 μg/μl Remsima, Celltrion Inc., South Korea) and anti-VEGF (Aflibercept, 40 μg/μl, Bayer Pharma AG, Berlin, Germany), with or without iMfs' supernatant were also studied in the CSA. Compounds' concentrations were based on previous studies (Grattendick et al., (2008)). Controls included medium-treated CSA and iMfs' supernatant treated CSA.
C57/BL6J 4-6 weeks old mice, treated in accordance with the guidelines of the Association for Research in Vision and Ophthalmology (ARVO), were utilized to generate the CSA. Experiments were conducted with the approval of the institutional animal care ethics committee. Five (5) minutes after injecting with ketamine, animals were evaluated for responses and euthanized by cervical dislocation. Eyes were immediately enucleated and kept in ice-cold ECGS medium containing 100 units/ml penicillin-streptomycin and 1% glutamine before dissection. A choroid-sclera complex from the mice was gently dissected along with retinal pigment epithelium (RPE). The complex was cut into 5-6 1 mm long pieces. Fragments were embedded in 30 μl of growth factor-reduced-Matrigel™ (BD Biosciences, Cat. 354230) in 24-well plates. The thickness of the Matrigel™ was approximately 0.4 mm. Plates were then incubated for 10 minutes in 37° C., in a 5% CO2 cell culture incubator without medium to solidify the Matrigel™. Five hundred (500) μl of medium containing ECGM (C-22010, Promocell, Germany) 2.5% supplement mix (C-9215, Promocell, Germany), 5% FCS, 100 units/ml penicillin-streptomycin, and 1% glutamine, was added to each well. For the experimental groups containing the iMfs' supernatant, the medium was replaced with 250 μl of iMfs' supernatant. Medium for each well was changed every 3 days, and the cultures were fixed with 4% PFA after 8 days. Cultures were viewed with an inverted phase-contrast CKX41 Olympus microscope, and images were photographed with an Olympus DP70 digital camera (Olympus, Tokyo, Japan).
ImageJ software was used for sprouting area quantification. Sprouting area was selected by the software and measured after excluding the choroid tissue. Background (control well, for each plate, supplemented with medium only) was subtracted and analysis was performed for each sample. Ratios of each well of experimental group and its relative control from the same eye were calculated and averaged with its replicates.

[3] = intravitreal injection together with 1×10^5 M(IFNγ and LPS) iMfs
[4] = intravitreal injection, substance alone, compared to PBS
[5] = substance added alone to CSA medium, cytokines at maximal level found in M(IFNγ and LPS) media, infliximab 100 μg/μl

In the case of Aflibercept [anti-VEGF], the “Mean of CNV size±SEM” value [1, 3] is reported as 0.02±0.001 and the “Mean of CNV size±SEM” value [1, 4] is reported as 0.024±0.002.

With “IL-8: recombinant cytokine (PeproTech), 0.5 ng/μl” the “Mean of relative ratio between treated and untreated wells±SEM (sprouting area)” value [2, 5] was 0.47±0.14.

With VEGF the “Mean of relative ratio between treated and untreated wells±SEM (sprouting area)” value [2, 5] was 0.86±0.08.

For infliximab [anti-TNF], the “Mean of relative ratio between treated and untreated wells±SEM (sprouting area)” value [2, 5] was 1.14±0.06, the “Mean of relative ratio between treated and untreated wells±SEM (sprouting area)” value ([2]; with M(IFNγ and LPS)s' supernatant) was over 1.06±0.04 and the “Mean of CNV size±SEM” value [1, 3] was over 0.036±0.004. For the same substance, the “Mean of CNV size±SEM” value [1, 4] was 0.045±0.005.

“IL-6: recombinant cytokine (PeproTech), 2.5 ng/μl” was tested, and the “Mean of relative ratio between treated and untreated wells±SEM (sprouting area)” value [2, 5] was 0.64±0.1.

For “IL-1β: recombinant cytokine (PeproTech), 0.05 ng/μl”, the “Mean of relative ratio between treated and untreated wells±SEM (sprouting area)” value [2, 5] was 0.8±0.2.

With TNFα the “Mean of relative ratio between treated and untreated wells±SEM (sprouting area)” value [2, 5] was over 1.6±0.2.
